Entries after “also recorded” stand apart in the source; their conditions may differ.
How the values were obtained:
[1] = tested on: endogenous sialyltransferase activity of human polymorphonuclear leukocytes; test: Sialyltransferase assay (flow cytometry), intact PMNs as endogenous ST source; type: cell-based
From the text: (§1) For the study of PMN ST activity, a previously described ST assay was adapted in which CMP-5-NANA served as the labeled sialyl residue donor and neuraminidase-treated RBCs as the sialyl residue acceptor (7). Based on preliminary studies, a standard reaction mixture contained a sialyl residue acceptor, either RBCs or polymorphonuclear leukocytes, CMP-5-NANA and a ST source. Purified α2,6-ST at a final concentration of 0.5 nU/ml, or polymorphonuclear leukocytes as an endogenous source of ST activity were used in a final volume of 100 μl cell incubation buffer (CIB) containing PBS plus 5 mg/ml BSA, pH 6.8. Sialyl residue acceptor SRBCs and polymorphonuclear leukocytes were desialylated with 25 mU/ml NANase/1-2×10^8/cells in 1 ml of CIB for 1 h at 37° C., washed once in CIB and used at 4×10^6 cells or at 8×10^6 cells respectively in a volume of 40 μl. When used as an endogenous source of ST activity, human polymorphonuclear leukocytes were adjusted to a stock concentration of 1×10^8 PMN/ml, lysed by freeze/thawing, centrifuged, and the protein concentration of the supernatant determined (Bio-Rad Laboratories, Hercules, Calif.). Intact human polymorphonuclear leukocytes at 8×10^6/0.1 ml assay volume were also used both as a source of ST activity as well as an acceptor of sialyl residues.
(§2) After gentle mixing, all tubes were incubated for 2 h at 37° C. in a humidified atmosphere containing 5% CO2. The cells were washed, pelleted and resuspended in CIB and analyzed fluorocytometrically on a FACScan II (Becton-Dickinson, Mountain View, Calif.). Based on forward and right angle light scatter properties, an electronic gate was placed around the RBCs or polymorphonuclear leukocytes which were excited at […] and emission measured at 530 nm. At least 10,000 events were recorded per condition. Data was analyzed with a CellQuest analysis program.
For each experiment, controls included omission of each of the components of the assay mixture, i.e., ST source, CMP-5 NANA or sialyl residue acceptor) as well as boiled, exogenous α2,6 ST. When indicated, 2-DN (0.04 mM, final concentration), an inhibitor of sialidase activity (8) was introduced to prevent the possible removal of the transferred sialyl residues. ST activity was measured after subtraction of background fluorescence, i.e., complete assay mixture minus either the exogenous ST or, for endogenous ST, in the presence and absence of the ST inhibitor, CMP (0.3 mM final concentration) and was expressed as % of maximal activity. For experiments in which it was estimated the endogenous ST activity, a standard curve was constructed using serial 2-fold dilutions of purified α2-6 ST enzyme from which tissue ST activity was interpolated, and expressed the ST activity as nU per μg protein.

[2] = tested on: polymorphonuclear leukocytes in the peritoneal fluid; test: In vivo IL-8 recruitment of PMNs to the peritoneal fluid; conditions: mice; CMP intravenously 30 min before and 1 hr after IL-8 (150 ng/ml) intraperitoneally; counted at 2 hrs
Experimental: Mice are pre-treated intravenously with different doses of CMP 30 minutes before giving IL-8 (150 ng/ml) intraperitoneally to recruit polymorphonuclear leukocytes. This is followed with another dose of CMP one hr after the IL-8. Polymorphonuclear leukocytes in the peritoneal fluid of these mice are counted at 2 hrs after the IL-8, i.e., one hr after the second dose of CMP. The total polymorphonuclear leukocytes in the perioneal fluid of mice treated with CMP is compared with those given an equal volume of saline. It is contemplated that those receiving the CMP will have a lower number of polymorphonuclear leukocytes in the perioneal fluid.

[3] = tested on: polymorphonuclear leukocytes adhering to human microvascular endothelial cells (HMVEC); test: Adherence of resting PMNs to LPS-activated endothelial cells; type: cell-based; conditions: CMP 2.5 mM for 5 minutes prior to stimulation; LPS 100 ng/ml for 4 hrs; FIG. 5
Experimental: In contrast, when the human microvascular endothelial cells, HMVECs, are treated with lipopolysaccharide, LPS, (100 ng/ml for 4 hrs) to activate them, resting polymorphonuclear leukocytes adhere better to the HMVECs. […] When polymorphonuclear leukocytes are activated with the tetrapeptide FMLP (1×10^−7 M/cyt b for 5 min.) they adhere better than do resting polymorphonuclear leukocytes (FIG. 5). At this later stage of PMN-EC interaction, sialyltransferase doesn't play a role. It is contemplated that CMP appears to work by inhibiting the initial binding of non-activated polymorphonuclear leukocytes to the ECs and also works at the late stage where polymorphonuclear leukocytes that have migrated through the EC monolayer are unable to move further to the inflammatory nidus.

[4] = tested on: polymorphonuclear leukocytes; test: Preliminary tests of CMP toxicity to PMNs; type: cell-based, human; conditions: 0.3 mM CMP
α2,6 sialyltransferase = α2,6 sialyltransferase (Photobacterium damselae, UniProt O66375); test: Sialyltransferase assay (flow cytometry), exogenous ST with PMNs as sialyl residue acceptors; type: cell-based, bacterial; conditions: 0.3 mM CMP
α2,6 sialyltransferase, sequence (O66375 entry or part of it): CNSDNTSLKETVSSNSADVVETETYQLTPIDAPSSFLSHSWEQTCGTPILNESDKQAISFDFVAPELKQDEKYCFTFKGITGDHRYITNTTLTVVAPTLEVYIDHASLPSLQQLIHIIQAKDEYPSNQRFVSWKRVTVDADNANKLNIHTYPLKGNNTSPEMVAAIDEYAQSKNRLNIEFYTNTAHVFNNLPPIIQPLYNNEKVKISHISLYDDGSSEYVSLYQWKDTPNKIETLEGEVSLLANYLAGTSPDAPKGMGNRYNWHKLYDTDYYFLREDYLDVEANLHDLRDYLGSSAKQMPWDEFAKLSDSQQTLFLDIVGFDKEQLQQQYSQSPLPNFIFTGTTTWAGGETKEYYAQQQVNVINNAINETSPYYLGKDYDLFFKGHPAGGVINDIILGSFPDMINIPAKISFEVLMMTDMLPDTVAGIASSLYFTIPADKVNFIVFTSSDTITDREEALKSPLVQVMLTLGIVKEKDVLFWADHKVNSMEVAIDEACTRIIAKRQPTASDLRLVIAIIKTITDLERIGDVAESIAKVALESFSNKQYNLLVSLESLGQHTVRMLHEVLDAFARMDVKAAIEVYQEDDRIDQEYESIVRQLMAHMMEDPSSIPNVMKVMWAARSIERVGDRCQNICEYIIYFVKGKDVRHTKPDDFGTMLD
From the text: as §1, with “Sialyl residue acceptor SRBCs and polymorphonuclear leukocytes were desialylated with 25 mU/ml NANase/1-2×10^8/cells in 1 ml of CIB for 1 h at 37° C., washed once in CIB and used at 4×10^6 cells or at 8×10^6 cells respectively in a volume of 40 μl.” left out, “Intact human polymorphonuclear leukocytes at 8×10^6/0.1 ml assay volume were also used both as a source of ST activity as well as an acceptor of sialyl residues.” left out
as §2, with “Data was analyzed with a CellQuest analysis program.” left out

[5] = tested on: human polymorphonuclear leukocytes migrating across human pulmonary artery endothelial cells (HPAEC); test: Transendothelial migration of PMNs across HPAEC monolayers in response to IL-8; type: cell-based; conditions: 0.3 mM CMP; TNF-treated HPAEC monolayers, IL-8 150 ng/ml, 2 h; p<0.03
Experimental: FIG. 4 depicts inhibition of transendothelial cell migration by an ST inhibitor, cytidine monophosphate (CMP). Calcein AM-labeled human polymorphonuclear leukocytes were added to human pulmonary artery endothelial cells (HPAEC) pre-treated for 4 hrs with rTNF (50 U/ml). TEM was measured in response to IL-8 (150 ng/ml) over 2 hr as previously described (6) in the absence and presence of 0.3 mM CMP. 4 chambers/variable were studied. This figure is representative of 3 independent experiments.
The ability of human polymorphonuclear leukocytes to migrate across human pulmonary artery endothelial cell (HPAEC) monolayers in response to a chemotactic stimulus (IL-8) was measured as previously described (6). Only EC monolayers retaining […] of a ^14C-bovine serum albumen tracer were studied (i.e. no loss of barrier function). After treatment of HPAECs for 4 h with 25 U/ml TNFr, calcein AM (Molecular Probes, Eugene, Oreg.)-labeled human polymorphonuclear leukocytes (5×10^5 cells/well) were introduced into the upper compartments of the assay chambers, incubated for 2 h at 37° C., after which time each lower compartment was sampled and fluorometrically assayed. A standard curve was established for each experiment from which polymorphonuclear leukocyte numbers could be interpolated from fluorescence units and PMN TEM was expressed as % migration.

MFI (ST activity) in presence of sialidase inhibitor 2-DN ([1]; FIG. 3B: intact untreated PMNs, 2-DN 0.04 mM final concentration, MFI 364 without 2-DN) | Compound | number of polymorphonuclear leukocytes in the peritoneal fluid vs saline [2] | adherence of resting PMNs to LPS-treated HMVECs [3] | inhibition of ST activity in vitro ([1]; 0.3 mM CMP, preliminary tests) | MFI (mean fluorescence intensity) with CMP ([1]; FIG. 2C: neuraminidase-pretreated PMNs + intact untreated PMNs as endogenous ST source, 0.3 mM CMP, MFI 295 without CMP) | MFI (mean fluorescence intensity) with CMP ([1]; FIG. 2D: intact untreated PMNs added to PMNs not exposed to neuraminidase, 0.3 mM CMP, MFI 266 without CMP) | mean fluorescence intensity (MFI) after CMP treatment ([1]; FIG. 3A: PMNs (8×10^6), 10 μM CMP-NANA, 0.3 mM CMP, MFI 364 without CMP) | toxicity to the polymorphonuclear leukocytes [4] | MFI (mean fluorescence intensity) with CMP (α2,6 sialyltransferase; FIG. 2A: neuraminidase-pretreated PMNs + exogenous sialyltransferase, MFI 406 without CMP) | MFI (mean fluorescence intensity) with CMP (α2,6 sialyltransferase; FIG. 2B: PMNs unexposed to neuraminidase + exogenous sialyltransferase, MFI 310 without CMP) | inhibition of TEM (transendothelial migration) [5]
317 | CC(=O)N[C@H]1[C@H]([C@H](O)[C@H](O)CO)OC(C(=O)O)=C[C@@H]1O [2-DN, 2,3 deoxy-N-acetyl neuraminic acid] |  |  |  |  |  |  |  |  |  | 
 | Nc1ccn([C@@H]2O[C@H](COP(=O)(O)O)[C@@H](O)[C@H]2O)c(=O)n1 [CMP, cytidine 5′-monophosphate] | lower number | inhibits the initial binding; also recorded: decreased adherence | fully inhibited | 141 | 131 | 222 | not toxic | 165 | 167 | > 40%
